Molecular target: T1, MDM2 protein (Mus musculus, UniProt P23804)
T1 construct: from tissue; host or cells: liver of C57BL/6J wild-type mice
Test: Western blot of MDM2 protein in liver of mice given the compound
Format: in vivo
Conditions: C57BL/6J mice, 48 hours after administration
Protocol: In Example 4, degradation (knockdown) of the endogenous wild-type p53 protein and MDM2 protein in mouse individuals in which TIBC-CANDDY_MLN had been administered was evaluated by Western blot analysis.
TIBC-CANDDY_MLN was dissolved in DMSO immediately before administration, and then dissolved in corn oil (Code No. 25606-55, Nacalai Tesque) so that the concentration of DMSO was 10 vol %, and then a dose of 50 mg/kg body weight or 100 mg/kg body weight was administered intraperitoneally to C57BL/6J wild-type mice (7 to 8 weeks old, male) (CLEA Japan, Inc.) (n=3). As a control, an injection carrier (corn oil containing 10 vol % DMSO) was used. The mice were kept under an environment of ad libitum access to food and water. […]
The frozen tissue (0.04 g) was triturated, and then 980 μL of 1×TKM tissue lysis buffer (50 mM triethanolamine (pH 7.8), 50 mM KCl, 5 mM MgCl2, 0.25 M sucrose, 1 mM PMSF, protein inhibitors cocktail-EDTA free (Code No. 03969-21, Nacalai Tesque), 1 mM DTT, Recombinant RNase inhibitor 5 μl/mL (40 U/μl, Cat No. 2313A, Lot No. K8402DA, TAKARA Bio)) was added, and dissolved by rotation for 15 minutes (1 rpm, 25° C.). […] The concentration of proteins in the tissue extract was quantified with a spectrophotometer with the tissue extract that had been diluted 20 times using DEPC-treated water. […]

T1 sequence (P23804 whole entry): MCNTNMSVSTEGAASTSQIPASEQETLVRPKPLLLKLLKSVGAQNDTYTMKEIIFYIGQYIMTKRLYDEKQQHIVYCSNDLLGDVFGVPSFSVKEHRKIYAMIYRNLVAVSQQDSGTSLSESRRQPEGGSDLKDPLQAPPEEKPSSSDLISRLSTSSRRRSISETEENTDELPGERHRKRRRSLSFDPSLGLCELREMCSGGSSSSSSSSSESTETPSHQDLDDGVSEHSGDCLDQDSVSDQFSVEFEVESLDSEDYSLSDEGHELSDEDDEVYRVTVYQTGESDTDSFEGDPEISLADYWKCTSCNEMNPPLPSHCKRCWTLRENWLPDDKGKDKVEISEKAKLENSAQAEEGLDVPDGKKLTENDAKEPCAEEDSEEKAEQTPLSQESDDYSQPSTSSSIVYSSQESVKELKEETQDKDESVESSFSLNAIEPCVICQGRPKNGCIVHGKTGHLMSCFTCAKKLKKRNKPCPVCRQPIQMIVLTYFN

amount of MDM2 protein in the liver (50 mg/kg body weight intraperitoneally): reduced
amount of MDM2 protein in the liver (100 mg/kg body weight intraperitoneally): reduced
SMILES: CC(C)C[C@H](NC(=O)CNC(=O)c1cc(Cl)ccc1Cl)C(=O)NCCCCCCC(=O)Nc1ccc(C(=O)/C=C/c2ccc(I)cc2)cc1 [TIBC-CANDDY_MLN]

Source: patent publication US11007269B2, “P53 degradation inducing molecule and pharmaceutical composition” (Tokyo University of Science Foundation, priority 2016, dated 2021)
